Source: US11021481B2, “Substituted isoindolin-1-ones and 2,3-dihydro-1h-pyrrolo[3,4-c]pyridin-1-ones as HPK1 antagonists” (Nimbus Saturn, Inc., priority 2019, dated 2021)

What follows are molecules tested against HPK1 (Homo sapiens (Human), UniProt Q92918) (assay: HPK1 biochemical enzyme assay (microfluidic mobility shift assay)). Conditions: 1.5 nM HPK1, ATP 1 mM final, 30 min preincubation, 60 min at RT, Caliper EZ Reader; read-out: HPK1 1000UMATP caliper IC50.
Procedure, shortened: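 Ten-point compound titrations (top 3 μM final) preincubated 30 min with HPK1 and substrate, then reaction started with 1 mM ATP and 1 μM substrate, 5 mM MgCl2. After 60 min at RT, reaction terminated and product measured by microfluidic mobility shift.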

Chain of HPK1 (Q92918 whole entry): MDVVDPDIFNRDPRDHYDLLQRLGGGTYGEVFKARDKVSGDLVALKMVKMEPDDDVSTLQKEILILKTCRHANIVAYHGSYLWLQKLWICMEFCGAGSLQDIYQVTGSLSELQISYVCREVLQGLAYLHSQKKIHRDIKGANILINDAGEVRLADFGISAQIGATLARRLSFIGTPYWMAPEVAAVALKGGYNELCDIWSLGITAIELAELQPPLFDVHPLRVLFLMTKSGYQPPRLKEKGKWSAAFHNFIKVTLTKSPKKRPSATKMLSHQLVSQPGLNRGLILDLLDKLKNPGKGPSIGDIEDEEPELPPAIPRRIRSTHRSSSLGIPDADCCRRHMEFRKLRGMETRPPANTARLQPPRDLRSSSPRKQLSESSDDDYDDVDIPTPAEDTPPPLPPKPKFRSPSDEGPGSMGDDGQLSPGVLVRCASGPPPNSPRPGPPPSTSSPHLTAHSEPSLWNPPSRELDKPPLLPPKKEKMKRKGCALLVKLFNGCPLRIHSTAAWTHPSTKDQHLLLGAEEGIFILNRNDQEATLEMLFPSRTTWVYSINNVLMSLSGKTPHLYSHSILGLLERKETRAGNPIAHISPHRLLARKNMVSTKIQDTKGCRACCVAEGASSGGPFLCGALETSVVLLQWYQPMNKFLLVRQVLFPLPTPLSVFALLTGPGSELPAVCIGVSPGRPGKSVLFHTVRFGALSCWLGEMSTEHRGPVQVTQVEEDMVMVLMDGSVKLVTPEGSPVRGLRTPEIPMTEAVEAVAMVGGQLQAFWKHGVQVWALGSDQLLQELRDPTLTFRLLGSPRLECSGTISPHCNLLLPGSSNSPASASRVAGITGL

IC50 [nM]	Compound
< 100	CN(C)Cc1nc(Nc2ccc(-c3cnc4cc(F)ccn34)c3c2C(=O)NC3)ccc1N1CCC(O)CC1 [I-777, 7-((6-((dimethylamino)-methyl)-5-(4-hydroxypiperidin-1-yl)pyridin-2-yl)amino)-4-(7-fluoroimidazo [1,2-a]pyridin-3-yl)isoindolin-1-one]
100 to 1000	O=C1NCc2c(-c3cnc4n3CCCC4)ccc(Nc3ccc(N4CCC(O)CC4)cn3)c21 [I-296, 7-((5-(4-hydroxy-piperidin-1-yl)pyridin-2-yl)amino)-4-(5,6,7,8-tetrahydro-imidazo[1,2-a]pyridin-3-yl)isoindolin-1-one]
< 100	Cc1cc2c(-c3ncc(Nc4ccc(N5CCN(C)CC5)cn4)c4c3CNC4=O)ccnc2[nH]1 [I-55, 7-[[5-(4-methylpiperazin-1-yl)-2-pyridyl]amino]-4-(2-methyl-1H-pyrrolo[2,3-b]pyridin-4-yl)-2,3-dihydropyrrolo [3,4-c]pyridin-1-one]
< 100	CN(CCO)Cc1nc(Nc2ccc(-c3cnc4cc(F)ccn34)c3c2C(=O)NC3)ccc1C1CCOC1 (stereo in doubt) [I-733, (S)-4-(7-fluoroimidazo [1,2-a]pyridin-3-yl)-7-(6-(((2-hydroxy-ethyl)(methyl)-amino)methyl)-5-(tetrahydrofuran-3-yl)pyridin-2-yl)amino)isoin-dolin-1-one]
< 100	O=C1NCc2c(-c3cnn4c3CCCC4)ncc(Nc3ccc(N4CCOCC4)cn3)c21 [I-367, 7-((5-morpholinopyridin-2-yl)amino)-4-(4,5,6,7-tetrahdropyra-zolo[1,5-a]pyridin-3-yl)-2,3-dihydro-1H-pyrrolo[3,4-c]pyridin-1-one]
< 100	CN1C[C@@H]2CCN(c3cccc(Nc4cnc(-c5ccnc6c5ccn6C)c5c4C(=O)NC5)n3)[C@@H]2C1 [I-630, 4-(1-methyl-1H-pyrrolo[2,3-b]pyridin-4-yl)-7-((6-((3aS, 6aS)-5-methylhexahy-dropyrrolo[3,4-b]pyrrol-1(2H)-yl)pyridin-2-yl)amino)-2,3-dihydro-1H-pyrrolo[3,4-c]pyridin-1-one]
< 100	CCNC(=O)c1ccc(Nc2ccc(-c3ccnc4c3ccn4C)c3c2C(=O)NC3)nc1 [I-109, N-ethyl-6-[[7-(1-methylpyrrolo [2,3-b]pyridin-4-yl)-3-oxo-isoindolin-4-yl]amino]pyridine-3-carboxamide]
< 100	O=C1NCc2c(-c3cnc4cc(F)ccn34)ccc(Nc3ccc([C@H]4CCOC4)c(CN4CC[C@H](O)C4)n3)c21 [I-778, 4-(7-fluoroimidazo[1,2-a]pyridin-3-yl)-7-((6-(((S)-3-hydroxypyrrolidin-1-yl)methyl)-5-((R)-tetrahydrofuran-3-yl)pyridin-2-yl)amino)isoindolin-1-one]
< 100	CCN(CC)Cc1nc(Nc2ccc(-c3cnc4cc(F)ccn34)c3c2C(=O)NC3)ccc1C1CCOC1 (centres unmarked) [I-504, 7-[[6-(diethylaminomethyl)-5-tetrahydrofuran-3-yl-2-pyridyl]amino]-4-(7-fluoroimidazo [1,2-a]pyridin-3-yl)isoindolin-1-one]
< 100	Cc1c[nH]c2nccc(-c3ncc(Nc4ccc(N5CCN(C)CC5)cn4)c4c3CNC4=O)c12 [I-19, 7-[[5-(4-methylpiperazin-1-yl)-2-pyridyl]amino]-4-(3-methyl-1H-pyrrolo[2,3-b]pyridin-4-yl)-2,3-dihydropyrrolo [3,4-c]pyridin-1-one]
< 100	CO[C@@H]1CCN(Cc2nc(Nc3ccc(-c4cnc5cc(F)ccn45)c4c3C(=O)NC4)ccc2[C@@H]2CCOC2)C1 [I-781, 4-(7-fluoroimidazo [1,2-a]pyridin-3-yl)-7-((6-(((R)-3-methoxypyrrol-idin-1-yl)methyl)-5-((S)-tetrahydrofuran-3-yl)pyridin-2-yl)amino)isoin-dolin-1-one]
< 100	CN1CCN(c2cccc(Nc3ccc(-c4cnc5cc(Cl)ccn45)c4c3C(=O)NC4)n2)CC1 [I-236, 4-(7-chloroimidazo [1,2-a]pyridin-3-yl)-7-[[6-(4-methylpiperazin-1-yl)-2-pyridyl]amino] isoindolin-1-one]
< 100	CN1CCN(c2ccc(Nc3ccc(-c4c[nH]c5cc(F)ccc45)c4c3C(=O)NC4)nc2)CC1 [I-32, 4-(6-fluoro-1H-indol-3-yl)-7-[[5-(4-methylpiperazin-1-yl)-2-pyridyl]amino] isoindolin-1-one]
< 100	CN(C)Cc1nc(Nc2cnc(-c3ccnc4c3ccn4C)c3c2C(=O)NC3)ccc1N1CCO[C@H](C(C)(C)O)C1 [I-770, (S)-7-((6-((dimethylamino)-methyl)-5-(2-(2-hydroxypropan-2-yl)morpholino)pyridin-2-yl)amino)-4-(1-methyl-1H-pyrrolo[2,3-b]pyridin-4-yl)-2,3-dihydro-1H-pyrrolo[3,4-c]pyridin-1-one]
> 1000	COc1cc(N2CCC(O)CC2)cnc1Nc1ccc(-c2ccnc3c2ccn3C)c2c1C(=O)NC2 [I-267, 7-((5-(4-hydroxy-piperidin-1-yl)-3-methoxypyridin-2-yl)amino)-4-(1-methyl-1H-pyrrolo[2,3-b]pyridin-4-yl)isoindolin-1-one]
< 100	Cc1ccn2c(-c3ccc(Nc4ccc(C5(O)CCOCC5)cn4)c4c3CNC4=O)cnc2c1F [I-587, 4-(8-fluoro-7-methylimidazo [1,2-a]pyridin-3-yl)-7-((5-(4-hydroxytetra-hydro-2H-pyran-4-yl)pyridin-2-yl)amino)isoin-dolin-1-one]
< 100	Cc1cccc2c(-c3ccc(Nc4ccc(N5CCNCC5)cn4)c4c3CNC4=O)cnn12 [I-84, 4-(7-methylpyrazolo [1,5-a]pyridin-3-yl)-7-[(5-piperazin-1-yl-2-pyridyl)amino] isoindolin-1-one]
< 100	CC(C)N(C)Cc1nc(Nc2ccc(-c3cnc4cc(F)ccn34)c3c2C(=O)NC3)ccc1C1CCOC1 (stereo in doubt) [I-730, (R)-4-(7-fluoroimidazo [1,2-a]pyridin-3-yl)-7-((6-((isopropyl(methyl)amino)methyl)-5-(tetrahydrofuran-3-yl)pyridin-2-yl)amino)isoin-dolin-1-one]
< 100	Cc1ccn2c(-c3ccc(Nc4ccc(N5CCC(O)CC5)cn4)c4c3CNC4=O)cnc2c1F [I-151]
< 100	Cn1ccc2c(-c3ncc(Nc4ccc(N5CC[C@H](F)[C@@H](O)C5)cn4)c4c3CNC4=O)ccnc21 [I-417, 7-((5-((3S,4S)-4-fluoro-3-hydroxy-piperidin-1-yl)pyridin-2-yl)amino)-4-(1-methyl-1H-pyrrolo[2,3-b]pyridin-4-yl)-2,3-dihydro-1H-pyrrolo[3,4-c]pyridin-1-one]
< 100	CN(C)C(C)(C)C1CN(c2ccc(Nc3cnc(-c4ccnc5c4ccn5C)c4c3C(=O)NC4)nc2)CCO1 (centres unmarked) [I-668]
< 100	C[C@@H]1COc2c(-c3ccc(Nc4ccc(N5CCN(C)CC5)cn4)c4c3CNC4=O)cnn2C1 [I-261, (S)-4-(6-methyl-6,7-dihydro-5H-pyrazolo[5,1-b][l,3]oxazin-3-yl)-7-((5-(4-methylpiperazin-1-yl)pyridin-2-yl)amino)isoin-dolin-1-one]

Compound	IC50 [nM]
O=C1NCc2c(-c3cnc4cc(F)ccn34)ccc(Nc3ccc([C@H]4CCOC4)c(CN4CC[C@@H](F)C4)n3)c21 (stereo in doubt) [I-741, 4-(7-fluoroimidazo [1,2-a]pyridin-3-yl)-7-((6-(((R)-3-fluoropyrrol-idin-1-yl)methyl)-5-((S)-tetrahydrofur-an-3-yl)pyridin-2-yl)amino)isoin-dolin-1-one]	< 100
